From US11840560B2, “Prodrugs and uses thereof” (Novo Nordisk A/S, priority 2022, dated 2023)
*1 amine or outer side, *2 acyl side, *3 side chain or, on linkers, in order; H or OH if unused. Where a SMILES comes first, the peptide text is derived from it. Side-chain parts run from the residue outwards. [ ]: non-standard residue; d: D form. The star is where a group is joined. N(2-Aminoethyl)Gly = O=C(CN(CCN[*:3])[*:1])[*:2]; C18 diacid = O=C(O)CCCCCCCCCCCCCCCCC(=O)*; C16 diacid = O=C(O)CCCCCCCCCCCCCCC(=O)*; γGlu = O=C(O)[C@H](CCC(=O)[*:2])N[*:1]; εLys = N[C@@H](CCCCN[*:1])C(=O)[*:2]; AEEA = NCCOCCOCC(=O)O; Aib = CC(C)(N)C(=O)O; Sar = CNCC(=O)O

Columns and labels:
[1] = in vivo; set-up: species or system beagle dogs; conditions: dog, po, 300 mg; for Tmax / half-life: male, beagle
Method: The purpose of this method is to determine the terminal half-life and plasma exposure in vivo of the compounds of the present invention after p.o. administration to beagle dogs, i.e. the terminal half-life and concentration of test substance that reaches circulation with time. This is done in a pharmacokinetic (PK) study, where these parameters of the compound in question are determined. By terminal half-life is generally meant the period of time it takes to halve a certain plasma concentration, measured after the initial distribution phase.
Tablet compositions comprising the test compounds obtained from Example 1 and SNAC (sodium N-(8-(2-hydroxybenzoyl)amino)caprylate) were prepared according to methods known to the person skilled in the art by mixing test substance with roller compacted SNAC and magnesium stearate as e.g. described in WO 2019/149880. Each tablet was comprised of 7.7 mg magnesium stearate, 2-4 mg of each compound tested, and 300 mg SNAC.
Male beagle dogs, 1-7 years of age and weighing 9-17 kg during the study period, were included in the study. The dogs were dosed in a fasting state. The dogs were group housed in pens (12 hours light: 12 hours dark), and fed individually and restrictedly once daily with Royal Canin Medium Adult dog food (Royal Canin Products, China Branch, or Brogaarden A/S, Denmark). The dogs were used for repeated PK studies with a suitable wash-out period between successive dosing. An appropriate acclimatisation period was given prior to initiation of the first PK study. All handling, dosing, and blood sampling of the animals were performed by trained and skilled staff. Before the studies, the dogs were fasted overnight and from 0 to 4 hours after dosing. The dogs were restricted to water 1 hour before dosing until 4 hours after dosing, but otherwise had adlibitum access to water during the whole period.
The compositions were administered by a single oral dosing to the dogs in groups of 6-8 dogs. The tablets were administered in the following manner: 10 min prior to tablet administration, the dogs may be dosed subcutaneously with approximately 3 nmol/kg of SEQ ID NO.: 7 ([…]), then tablets were placed in the back of the mouth of the dog to prevent chewing. The mouth was then closed, and 10 mL of tap water was given by syringe or gavage to facilitate swallowing of the tablet.
One blood sample was drawn before dosing, and additional samples were drawn at predefined time points after dosing, such as for up to 600 hours, to adequately cover the full plasma concentration-time absorption profile of the test substance. For each blood sample time point, approximately 0.8 mL of whole blood was collected in a 1.5 mL EDTA-coated tube, which was gently turned to mix the sample with EDTA. Blood samples were collected in EDTA buffer (8 mM) and then centrifuged at 4° C. and 2000 g for 10 minutes. Plasma was pipetted into Micronic tubes on dry ice, and kept at −20° C. or lower until analysis. Blood samples were taken as appropriate, for example from a venflon in the cephalic vein in the front leg for the first 2 hours and then with syringe from the jugular vein for the rest of the time points. The first few drops were allowed to drain from the venflon to avoid heparin saline from the venflon in the sample. All blood samples were collected into test tubes containing EDTA for stabilisation and kept on ice until centrifugation. Plasma was separated from whole blood by centrifugation and the plasma was stored at −20° C. or lower until analysis.
The plasma was analysed for test substance using LC-MS (Liquid Chromatography-Mass Spectrometry) as known to the person skilled in the art. […]

[2] = physchem; format: physicochemical; conditions: buffer, pH 7.4
Method: The assay was performed to investigate the conversion half-life of prodrug to drug of the prodrugs of the invention. The conversion half-life was investigated in vitro at pH 7.4 upon incubation at 37° C.
Test compounds were dissolved to a concentration of 100 μM in phosphate-buffered saline (140 mM NaCl, 2.07 mM KCl, 8.05 mM Na2HPO4, 1.96 mM KH2PO4, pH 7.4). Solution pH was measured after dissolution and adjusted to pH 7.4 with aqueous NaOH if necessary. The solution was filtered through a 0.22 μm syringe filter, then incubated in a water bath at 37° C. Aliquots were withdrawn at defined timepoints, e.g. every 24-72 hours, for LCMS analysis.
LCMS analysis was performed using the procedure defined in LCMS_A above. The AUC of the prodrug, active drug, and DKP were determined using UV detection at 214 nm, and the ratio of prodrug AUC over total AUC of prodrug plus active drug plus DKP was calculated. The negative natural logarithm of this ratio was plotted over time, and a linear regression of this relationship was then performed.
The prodrug to drug conversion half-life of the compounds of the invention was measured as described in General Methods for Measuring Conversion Half-life.

half-life at 100 μM [2] [h] | Molecule | AUC/Dose [1] [kg·h/L] | Cmax/Dose [1] [kg/L] | Tmax [1] [h] | half-life [1] [h]
 | CC[C@H](C)[C@H](NC(=O)[C@H](CC(C)C)NC(=O)[C@H](Cc1c[nH]c2ccccc12)NC(=O)[C@H](CCC(N)=O)NC(=O)[C@@H](NC(=O)[C@H](Cc1ccccc1)NC(=O)[C@H](C)NC(=O)[C@H](CCCCNC(=O)COCCOCCNC(=O)COCCOCCNC(=O)CC[C@H](NC(=O)CCCCCCCCCCCCCCCCCCC(=O)O)C(=O)O)NC(=O)[C@H](CCC(N)=O)NC(=O)[C@H](C)NC(=O)[C@@H](NC(=O)[C@H](CCCCN)NC(=O)[C@H](CC(=O)O)NC(=O)[C@H](CC(C)C)NC(=O)C(C)(C)NC(=O)[C@@H](NC(=O)[C@H](CO)NC(=O)[C@H](Cc1ccc(O)cc1)NC(=O)[C@H](CC(=O)O)NC(=O)[C@H](CO)NC(=O)[C@@H](NC(=O)[C@H](Cc1ccccc1)NC(=O)[C@@H](NC(=O)CNC(=O)[C@H](CCC(=O)O)NC(=O)C(C)(C)NC(=O)[C@H](Cc1ccc(O)cc1)NC(=O)[C@@H](NC(=O)[C@@H](N)CCCCNC(=O)CC[C@H](NC(=O)CCCCCCCCCCCCCCC(=O)O)C(=O)O)C(C)C)[C@@H](C)O)[C@@H](C)O)[C@@H](C)CC)[C@@H](C)CC)C(C)C)C(=O)N[C@@H](C)C(=O)NCC(=O)NCC(=O)N1CCC[C@H]1C(=O)N[C@@H](CO)C(=O)N[C@@H](CO)C(=O)NCC(=O)N[C@@H](C)C(=O)N1CCC[C@H]1C(=O)N1CCC[C@H]1C(=O)N1CCC[C@H]1C(=O)N[C@@H](CO)C(N)=O [Non-converting compound 4] | 18.9 | 0.16 | 7 | 136
 | CC[C@H](C)[C@H](NC(=O)[C@H](Cc1ccccc1)NC(=O)[C@H](CCC(=O)O)NC(=O)[C@H](CCCNC(=N)N)NC(=O)[C@H](C)NC(=O)[C@H](C)NC(=O)[C@H](CCC(N)=O)NC(=O)[C@H](CCC(=O)O)NC(=O)[C@H](CCC(=O)O)NC(=O)[C@H](CC(C)C)NC(=O)[C@H](CC(C)C)NC(=O)[C@@H](NC(=O)[C@H](CO)NC(=O)[C@H](Cc1ccc(O)cc1)NC(=O)[C@H](CC(=O)O)NC(=O)[C@H](CO)NC(=O)[C@@H](NC(=O)[C@H](Cc1ccccc1)NC(=O)[C@@H](NC(=O)CNC(=O)[C@H](CCC(=O)O)NC(=O)C(C)(C)NC(=O)[C@@H](N)Cc1ccc(O)cc1)[C@@H](C)O)[C@@H](C)O)[C@@H](C)CC)C(=O)N[C@@H](CCC(=O)O)C(=O)N[C@@H](Cc1c[nH]c2ccccc12)C(=O)N[C@@H](CC(C)C)C(=O)N[C@@H](CC(C)C)C(=O)N[C@@H](C)C(=O)NCC(=O)NCC(=O)N1CCC[C@H]1C(=O)N[C@@H](CO)C(=O)N[C@@H](CCCCNC(=O)[C@@H](N)CCCCNC(=O)[C@@H](N)CCCCNC(=O)CC[C@H](NC(=O)CCCCCCCCCCCCCCCCC(=O)O)C(=O)O)C(=O)NCC(=O)N[C@@H](C)C(=O)N1CCC[C@H]1C(=O)N1CCC[C@H]1C(=O)N1CCC[C@H]1C(=O)N[C@@H](CO)C(=O)O [Parent compound 3] (H-Y[Aib]EGTFTSDYSILLEEQAAREFIEWLLAGGPSK([εLys-εLys-γGlu-C18 diacid])GAPPPS-OH) | 21.4 | 0.22 |  | 
 | CC[C@H](C)[C@H](NC(=O)[C@H](CC(C)C)NC(=O)[C@H](Cc1c[nH]c2ccccc12)NC(=O)[C@H](CCC(N)=O)NC(=O)[C@@H](NC(=O)[C@H](Cc1ccccc1)NC(=O)[C@H](C)NC(=O)[C@H](CCCCNC(=O)COCCOCCNC(=O)COCCOCCNC(=O)CC[C@H](NC(=O)CCCCCCCCCCCCCCCCCCC(=O)O)C(=O)O)NC(=O)[C@H](CCC(N)=O)NC(=O)[C@H](C)NC(=O)[C@@H](NC(=O)[C@H](CCCCN)NC(=O)[C@H](CC(=O)O)NC(=O)[C@H](CC(C)C)NC(=O)C(C)(C)NC(=O)[C@@H](NC(=O)[C@H](CO)NC(=O)[C@H](Cc1ccc(O)cc1)NC(=O)[C@H](CC(=O)O)NC(=O)[C@H](CO)NC(=O)[C@@H](NC(=O)[C@H](Cc1ccccc1)NC(=O)[C@@H](NC(=O)CNC(=O)[C@H](CCC(=O)O)NC(=O)C(C)(C)NC(=O)[C@@H](N)Cc1ccc(O)cc1)[C@@H](C)O)[C@@H](C)O)[C@@H](C)CC)[C@@H](C)CC)C(C)C)C(=O)N[C@@H](C)C(=O)NCC(=O)NCC(=O)N1CCC[C@H]1C(=O)N[C@@H](CO)C(=O)N[C@@H](CO)C(=O)NCC(=O)N[C@@H](C)C(=O)N1CCC[C@H]1C(=O)N1CCC[C@H]1C(=O)N1CCC[C@H]1C(=O)N[C@@H](CO)C(N)=O [Parent compound 5] | 13.0 | 0.22 | 1 | 134
97 | H-A[N(2-Aminoethyl)Gly]([γGlu-C16 diacid])Y[Aib]EGTFTSDYSILLEEQAAREFIEWLLAGGPSK([AEEA-AEEA-γGlu-C16 diacid])GAPPPS-OH [Compound 4] |  |  |  | 
38 | H-D[N(2-Aminoethyl)Gly]([γGlu-C16 diacid])Y[Aib]EGTFTSDYSILLEEQAAREFIEWLLAGGPSK([AEEA-AEEA-γGlu-C16 diacid])GAPPPS-OH [Compound 7] |  |  |  | 
 | H-G[N(2-Aminoethyl)Gly]([γGlu-C16 diacid])Y[Aib]EGTFTSDYSILLEK([εLys-εLys-γGlu-C18 diacid])QAAREFIEWLLAGGPSSGAPPPS-OH [Compound 17] | 30.4 | 0.30 | 1.5 | 105
 | H-K([γGlu-C16 diacid])VY[Aib]EGTFTSDYSILLEEQAAREFIEWLLAGGPSK([εLys-εLys-γGlu-C16 diacid])GAPPPS-OH [Non-converting compound 2] | 10.8 | 0.13 | 1.3 | 130
 | H-K([γGlu-C16 diacid])VY[Aib]EGTFTSDYSILLEK([εLys-εLys-γGlu-C18 diacid])QAAREFIEWLLAGGPSSGAPPPS-OH [Non-converting compound 3] | 31.4 | 0.27 | 4 | 115
125 | H-K([γGlu-γGlu-C16 diacid])[Sar]Y[Aib]EGTFTSDYSILLEEQAAREFIEWLLAGGPSK([AEEA-AEEA-γGlu-C16 diacid])GAPPPS-OH [Compound 8] |  |  |  | 
440 | H-P[N(2-Aminoethyl)Gly]([γGlu-C16 diacid])Y[Aib]EGTFTSDYSILLEEQAAREFIEWLLAGGPSK([AEEA-AEEA-γGlu-C16 diacid])GAPPPS-OH [Compound 6] |  |  |  | 
182 | H-[dK]([εLys-γGlu-C16 diacid])[Sar]Y[Aib]EGTFTSDYSILLEEQAAREFIEWLLAGGPSK([AEEA-AEEA-γGlu-C16 diacid])GAPPPS-OH [Compound 11] |  |  |  | 
